Structures are written as SMILES. Values joined by “and” are separate entries in the source; they are usually repeats but may differ in a detail not shown here. Identical values can stand only once.

This experiment deals with 762968-020-R-J2-PDC spheroids viability. In words: Anticancer human tumor 762968-020-R-J2-PDC patient-derived colon carcinoma cell line growth inhibition [TAK]. To be noted: spheroids with HUVEC and MSC; for viability, T/C: stronger effect = lower value. The source says:
Combinatorial screen of targeted agents with TAK-243 and ipatasertib in multi-cell type tumor spheroids
A high-throughput screen of multi-cell type tumor spheroids was designed to identify active combinations of targeted small molecules and TAK-243 or ipatasertib. Complex spheroids include a stromal component modeled by human endothelial cells (HUVEC) and fibroblasts modeled by human mesenchymal stem cells (MSCs). The concentration ranges selected for each drug and investigational agent were based upon clinically achievable concentrations if the clinical Cmax of the agent was known.
Compounds. The drugs and investigational agents: TAK-243 (785004), ipatasertib (767898), everolimus (733504), selumetinib (741078), bortezomib (756655), trametinib (758246), ixazomib (758254), vemurafenib (761431), dabrafenib (764134), sapanisertib (764658), alpelisib (765974), and copanlisib (816437), were obtained from the National Cancer Institute (NCI) Developmental Therapeutics Program Chemical Repository. The FDA-approved anticancer drug set is available from the NCI Developmental Therapeutics Program. […] The stock solutions were prepared in dimethyl sulfoxide (DMSO, Sigma-Aldrich, St. Louis, MO, cat. D2650) at 800-fold the tested concentration and stored at -70 degrees C prior to their use. All drugs and investigational agents were tested over a range starting from a high concentration at or near the clinical Cmax and decreasing in half-log increments. If the clinical Cmax for an agent had not been determined, the highest concentration tested was 10 microM.
NCI60 Cell Culture. NCI60 cell lines were obtained from the NCI Developmental Therapeutics Program Tumor Repository. For each lot of cells, the Repository performed Applied Biosystems AmpFLSTR Identifiler testing with PCR amplification to confirm consistency with the published Identifier STR profile for each cell line. Cells were kept in continuous culture for no more than 20 passages. The optimal seeding densities for each of the cell lines at each time point assessed were determined prior to performing the concentration response studies. Briefly, the NCI60 human tumor lines were grown as monolayers in RPMI 1640 medium supplemented with 10% FBS and 2 mmol/L L-glutamine.
An additional 2 lines were from the NCI60 cell line panel including melanomas, MALME-3M and SK-MEL-2. Pooled donor human umbilical vein endothelial cells (HUVEC, Lonza, cat. CC-2519) and human mesenchymal stem cells (hMSC, Lonza, cat. PT-2501) were purchased from Lonza (Walkersville, MD).
PDMR cell lines were grown in complete medium (DC medium): Dulbecco's modified Eagle's medium (DMEM)/F12 supplemented with 5% fetal bovine serum (FBS), 2 mM L-glutamine, 100 U/mL penicillin and 100 µg/ml streptomycin, 0.4 µg/ml hydrocortisone, 10 ng/ml epidermal growth factor (EGF) recombinant human protein, 24 µg/mL adenine, and 0.1 mg/mL primocin. During culture from frozen stock vials, PDMR cells were cultured in the same medium containing 10 µM Y-27632 (see Table 3). The PDCs were cultured in complete DMEM/F12 media without 10 microM Y-27632 dihydrochloride for at least two passages prior to the screen. The pooled donor HUVEC and hMSC were cultured in endothelial cell growth medium 2 (PromoCell, Heidelberg, Germany, cat. C-22011) and mesenchymal stem cell growth medium 2 (PromoCell, cat. C-28009), respectively. For all experiments, HUVEC and hMSC were used at passages </=5.
For the pre-screen, cell seeding densities were determined from a titration spanning the range from 5,000 to 313 cells per well. The mct-spheroids including 60% malignant cells, 25% HUVEC and 15% MSC dispensed as a mixture into U-bottom Ultra-Low Attachment 384-well plates (Corning, NY)
High-throughput Drug Combination Screening.
Prior to their inoculation into 384-well plates, malignant cells, HUVEC, and hMSC were removed from T flasks using TrypLE express (Thermo Fisher Scientific, cat. 12605036) and harvested by centrifugation for 5 min at 233 x g. […]
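Note: spheroids exposed to drug for 7 days before readout.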

Broadly, the viability, T/C is the ratio of treated to control. By IC50 is commonly meant the concentration needed to halve the response being measured. As to `CC(=O)Nc1cccc(-n2c(=O)n(C3CC3)c(=O)c3c(Nc4ccc(I)cc4F)n(C)c(=O)c(C)c32)c1`, the viability, T/C reads like this: (compound 94.9 pM) 98.7% and 103%; (compound 0.0003 µM) 103% and 97.5%; (compound 0.000949 µM) 97.3%; (compound 0.003 µM) 86.9% and 80.5%; (compound 0.00949 µM) 60.6% and 73.2%; (compound 0.03 µM) 41.2% and 39%. For the same molecule, the IC50 (curve of compound) is 17.8 nM and 20.4 nM.

With `CC(C)(C)c1nc(-c2cccc(NS(=O)(=O)c3c(F)cccc3F)c2F)c(-c2ccnc(N)n2)s1`, the viability, T/C by setting is: (compound 0.0316 µM) 85.6% and 94.4%; (compound 0.1 µM) 82.9% and 88.2%; (compound 0.316 µM) 92.5% and 85.2%; (compound 1 µM) 86.4% and 81%; (compound 3.16 µM) 90.5% and 88.5%; (compound 10 µM) 99.3% and 86.4%. The IC50 (curve of compound) is above 10000 nM.

For the molecule `CC(C)CC(NC(=O)C(Cc1ccccc1)NC(=O)c1cnccn1)B(O)O` (stereo not given), the viability, T/C is 94.6% and 101% (compound 31.6 pM); 102% and 101% (compound 0.0001 µM); 108% and 96.2% (compound 0.000316 µM); 103% and 99.8% (compound 0.001 µM); 109% and 99% (compound 0.00316 µM); 90.6% and 93.7% (compound 0.01 µM). For the same molecule, for the setting “curve of compound”, the IC50 was above 10 nM.

`CC(C)CC(NC(=O)CNC(=O)c1cc(Cl)ccc1Cl)B1OC(=O)CC(CC(=O)O)(C(=O)O)O1` (stereo not given): the viability, T/C by setting is: (compound 0.000316 µM) 100% and 110%; (compound 0.001 µM) 109% and 98.2%; (compound 0.00316 µM) 104% and 108%; (compound 0.01 µM) 97.5% and 107%; (compound 0.0316 µM) 96.1% and 98%; (compound 0.1 µM) 78.6% and 80.6%. For the same molecule, where the note is “curve of compound”, the 50% inhibitory concentration (IC50) was above 100 nM.

On to `CC(C)NCC(C(=O)N1CCN(c2ncnc3c2C(C)CC3O)CC1)c1ccc(Cl)cc1` (stereo not given), for which the viability, T/C by setting is: (compound 0.3 µM) 103% [middle of 10 runs]; (compound 0.949 µM) 101% [middle of 10 runs]; (compound 3 µM) 104% [middle of 10 runs]; (compound 9.49 µM) 99.7% [middle of 10 runs]. For the same molecule, the IC50 (compound alone, run of 02/28/2020) amounted to 17200 nM and the IC50 (compound alone, run of 03/19/2020) is above 30000 nM.

Regarding `CC(C)n1nc(-c2ccc3oc(N)nc3c2)c2c(N)ncnc21`, the viability, T/C reads like this: (compound 0.000316 µM) 99% and 96.9%; (compound 0.001 µM) 99% and 101%; (compound 0.00316 µM) 98.2% and 101%; (compound 0.01 µM) 94.8% and 99.8%; (compound 0.0316 µM) 89.5% and 103%; (compound 0.1 µM) 66.5% and 83.3%. Besides, the IC50 (curve of compound) was above 100 nM.

Turning to `CCCS(=O)(=O)Nc1ccc(F)c(C(=O)c2c[nH]c3ncc(-c4ccc(Cl)cc4)cc23)c1F`, the viability, T/C runs as follows: (compound 0.316 µM) 88.9% and 96.2%; (compound 1 µM) 87.8% and 96.9%; (compound 3.16 µM) 90.3% and 92.5%; (compound 10 µM) 73.6% and 62.2%; (compound 31.6 µM) 99.2% and 102%; (compound 100 µM) 90.3% and 105%. In addition, for the setting “curve of compound”, the IC50 was above 100000 nM.

In the case of `COC1CC2CCC(C)C(O)(O2)C(=O)C(=O)N2CCCCC2C(=O)OC(C(C)CC2CCC(OCCO)C(OC)C2)CC(=O)C(C)C=C(C)C(O)C(OC)C(=O)C(C)CC(C)C=CC=CC=C1C` (stereo not given), the viability, T/C is 103% and 106% (compound 0.000316 µM); 99.4% and 100% (compound 0.001 µM); 104% and 96.8% (compound 0.00316 µM); 105% and 107% (compound 0.01 µM); 101% and 107% (compound 0.0316 µM); 99.1% and 95.3% (compound 0.1 µM). For the same molecule, the half-maximal inhibitory concentration (IC50) (curve of compound) was above 100 nM.

As for `COc1c(OCCCN2CCOCC2)ccc2c3n(c(=NC(=O)c4cnc(N)nc4)nc12)CCN3`, the viability, T/C is 101% and 102% (compound 0.00316 µM); 95.3% and 72% (compound 0.01 µM); 93% and 53.6% (compound 0.0316 µM); 80.6% and 42.5% (compound 0.1 µM); 76.2% and 50.6% (compound 0.316 µM); 73.9% and 52.4% (compound 1 µM).

Take `Cc1nc(NC(=O)N2CCCC2C(N)=O)sc1-c1ccnc(C(C)(C)C(F)(F)F)c1` (stereo not given): the viability, T/C is, setting by setting: (compound 0.0316 µM) 113% and 104%; (compound 0.1 µM) 106% and 95.2%; (compound 0.316 µM) 106% and 93.9%; (compound 1 µM) 92.5% and 89.1%; (compound 3.16 µM) 91.7% and 87.4%; (compound 10 µM) 92.9% and 87.8%. The IC50 (curve of compound) is above 10000 nM.

For `Cn1cnc2c(F)c(Nc3ccc(Br)cc3Cl)c(C(=O)NOCCO)cc21`, the viability, T/C was 103% and 98.9% (compound 0.00949 µM); 93.8% and 91.6% (compound 0.03 µM); 89% and 82% (compound 0.0949 µM); 83.4% and 78.8% (compound 0.3 µM); 67.7% and 64.5% (compound 0.949 µM); 49.1% and 44.4% (compound 3 µM). Moreover, the half-maximal inhibitory concentration (IC50) (curve of compound) was 2950 nM and 2240 nM.

These data come from PubChem BioAssay AID2060349 (Molecular Pharmacology Branch, DTP, NCI, 2025).
